Results published in paper PMC8819291, “Adaptively evolved human oral actinomyces‐sourced defensins show therapeutic potential” (EMBO Molecular Medicine, 2021).
Where a SMILES comes first, the peptide text is derived from it. Bridges are numbered along the chain shown (N, C = ends).

Key:
[1] = system: BM cells (Bacillus megaterium); assay: Scanning electron microscope observation of cell deformation; assay type: cell-based; conditions: 10 × C L, 37°C, 90 min
Method: After centrifugation, bacterial pellets were fixed with 2.5% glutaraldehyde for 1 h, followed by washing three times with PBS buffer (pH 7.3). Dehydration was carried out with a series of graded ethanol solutions. Cells were then dried by BAL‐TEC CPD‐030 critical point dryer (Bal‐Tec AG, Balzers, Liechtenstein) before being mounted on carbon tape and sputtered with a gold coating (BAL‐TEC SCD005). Images were visualized in FEI QUANTA 450.

[2] = system: HL‐60 cells; assay: Peptide-induced MCP-1 release (ELISA); assay type: cell-based, human; conditions: 24 h
Method: A549 and HL‐60 cells were purchased from the Cell Resource Center of the Chinese Academy of Medical Sciences (Beijing, China). They were tested for mycoplasma contamination with the Mycoplasma Detection Kit (Solarbio, China) and only negative cultures were used in our experiments. The cells were cultured in complete Dulbecco’s Modified Eagle Medium (DMEM) supplemented with 10% fetal bovine serum (FBS), penicillin (100 units/ml), and streptomycin ([…]) at 37°C in 5% CO2. The culture medium was changed every 2 days. Cells were passaged every 4–5 days with 0.25% trypsin (Gibco, USA). For enzyme‐linked immunosorbent assay (ELISA) (Hara et al, [2008]), A549 or HL‐60 cells were seeded in six‐well plates at a density of 1 × 10^5 cells/well and were incubated at 37°C in 5% CO2 overnight. Medium was aspirated and replaced with fresh complete DMEM supplemented with 10% FBS or serum‐free medium, both containing different concentrations of polypeptides for 24 h. Then, the supernatants were harvested for quantification of the IL‐8 amount in A549 by the Human CXCL8/IL‐8 Quantikine ELISA Kit (R&D Systems Inc., Minneapolis, MN, USA) and the MCP‐1 amount in HL‐60 by the Human MCP‐1 ELISA Kit (Boster Biological Technology Co., Ltd, Wuhan, China) as per the manufactures’ instructions.

[3] = system: gram‐positive bacteria; assay: Inhibition-zone assay, groups of strains; assay type: cell-based
Text: Bacterial media used here included: Luria‐Bertani (LB) medium, THY medium (30 g Todd Hewitt broth and 5 g Yeast extract per liter), and tryptic soy broth (TSB) (Oxoid, Basingstoke, UK); Broth medium and brain–heart infusion (BHI) medium (Beijing Landbridge technology Limited by Share Ltd., Beijing, China); Potato dextrose (PD) medium (self‐prepared).
In brief, an overnight bacterial culture from a single colony was inoculated into fresh medium and grew to late log‐phase. A 10‐μl aliquot of each culture was diluted in 6‐ml pre‐heated medium containing 0.8% agar. The mixture was spread on a 9‐cm Petri dish, giving a depth of 1 mm. After settling, 3‐mm wells were punched in the plate and then 2‐μl peptide samples of different concentrations were added to each well. The agar plates were incubated overnight at indicated temperatures (Table EV4). A lethal concentration (C L ) was calculated from a plot of d^2 against log n, where d is the diameter (in cm) and n is the amount of sample applied in the well (in nmol). The plot is linear, and thus C L can be calculated from the slope (k) and the intercept (m) of this plot.

[4] = system: SM membrane; assay: Membrane permeability assay (propidium iodide); assay type: cell-based, Streptococcus mutans; conditions: 10 × C L; 5 × 10^5 cells in PBS pH 7.3, 1 μM PI
Method: Fluorescence was measured with the F‐4500 FL spectrophotometer (Hitachi High‐Technology Company, Japan).

[5] = system: HL‐60; assay: Cytotoxicity assay (CCK-8); assay type: cell-based, human; conditions: 72 h
Method: Cells were cultured at 37°C in 5% CO2: 95% air incubator in Minimum Essential Medium (MEM) supplemented with 10% (v/v) fetal bovine serum (FBS). Cells were seeded at a density of 7 × 10^3 cells per well in 96‐well plates and incubated for 24 h. Media were then replaced with 200 μl of media containing various concentrations of peptides. The cells were incubated for 72 h and cytotoxicity was assessed with CCK‐8 Kits (Dojindo Molecular Technologies, Tokyo, Japan). Absorbance was detected at 450 nm with the TECAN Infinite M200 microplate reader (Tecan, Durham, USA).

[6] = target: Nav1.5 (Homo sapiens, UniProt Q14524); conditions: 100 μM AMSIN
Method: (§1) For the expression of Nav1.5, Kv1.4, Kv1.5, Kv2.1, Kv4.3, and hERG in Xenopus oocytes, the linearized plasmids were transcribed using the T7 or SP6 mMESSAGE‐mMACHINE transcription kit (Ambion). The harvesting of stage V–VI oocytes from an anesthetized female Xenopus laevis frog was previously described (Zhu et al, [2020]). Oocytes were injected with 50 nl of cRNA at a concentration of 1 ng/nl using a micro‐injector (Drummond Scientific, USA). The oocytes were incubated in a solution containing (in mM): NaCl, 96; KCl, 2; CaCl2, 1.8; MgCl2, 2 and HEPES, 5 (pH 7.4), supplemented with 50 mg/l gentamycin sulfate. Two‐electrode voltage‐clamp recordings were performed at room temperature (18–22°C) using a Geneclamp 500 amplifier (Axon Instruments, USA) controlled by a pClamp data acquisition system (Axon Instruments, USA). Whole‐cell currents from oocytes were recorded 1–4 days after injection. Bath solution composition was (in mM): NaCl, 96; KCl, 2; CaCl2, 1.8; MgCl2, 2 and HEPES, 5 (pH 7.4). Voltage and current electrodes were filled with 3 M KCl. Resistances of both electrodes were kept between 0.7 and 1.5 M Ω. Elicited currents were sampled at 1 kHz and filtered at 0.5 kHz (for potassium currents) or sampled at 20 kHz and filtered at 2 kHz (for sodium currents) using a four‐pole low‐pass Bessel filter. […] Current traces of hERG channels were elicited by applying a +40 mV prepulse for 2 s followed by a step to −120 mV for 2 s.

[7] = target: Kv1.5 (Homo sapiens, UniProt P22460); conditions: 100 μM AMSIN
Method: as §1

[8] = target: Kv2.1 (Homo sapiens, UniProt Q14721); conditions: 100 μM AMSIN
Method: as §1

[9] = target: Kv4.3 (Homo sapiens, UniProt Q9UK17); conditions: 100 μM AMSIN
Method: as §1

[10] = target: hERG (Homo sapiens, UniProt Q12809); conditions: 100 μM AMSIN
Method: as §1

[11] = target: Kv1.4 (Homo sapiens, UniProt P22459); conditions: 100 μM AMSIN
Method: as §1

Sequence of Kv1.5 (P22460 whole entry): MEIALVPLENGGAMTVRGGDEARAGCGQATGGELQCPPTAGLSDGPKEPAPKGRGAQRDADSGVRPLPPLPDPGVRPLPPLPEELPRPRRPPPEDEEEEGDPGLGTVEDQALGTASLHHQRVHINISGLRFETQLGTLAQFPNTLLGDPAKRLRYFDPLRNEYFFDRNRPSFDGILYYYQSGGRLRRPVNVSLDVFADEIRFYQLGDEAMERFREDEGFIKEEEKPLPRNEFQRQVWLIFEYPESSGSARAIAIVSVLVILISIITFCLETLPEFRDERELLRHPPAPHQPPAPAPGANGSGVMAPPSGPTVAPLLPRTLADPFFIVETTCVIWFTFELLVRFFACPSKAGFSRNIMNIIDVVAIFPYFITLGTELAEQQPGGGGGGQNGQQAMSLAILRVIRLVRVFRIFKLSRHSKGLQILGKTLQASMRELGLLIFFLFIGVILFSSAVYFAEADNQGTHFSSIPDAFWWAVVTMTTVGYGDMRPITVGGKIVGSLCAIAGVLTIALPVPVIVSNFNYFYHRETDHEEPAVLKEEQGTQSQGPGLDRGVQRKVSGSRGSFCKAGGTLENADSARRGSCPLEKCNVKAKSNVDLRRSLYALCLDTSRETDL
Sequence of hERG (Q12809 whole entry): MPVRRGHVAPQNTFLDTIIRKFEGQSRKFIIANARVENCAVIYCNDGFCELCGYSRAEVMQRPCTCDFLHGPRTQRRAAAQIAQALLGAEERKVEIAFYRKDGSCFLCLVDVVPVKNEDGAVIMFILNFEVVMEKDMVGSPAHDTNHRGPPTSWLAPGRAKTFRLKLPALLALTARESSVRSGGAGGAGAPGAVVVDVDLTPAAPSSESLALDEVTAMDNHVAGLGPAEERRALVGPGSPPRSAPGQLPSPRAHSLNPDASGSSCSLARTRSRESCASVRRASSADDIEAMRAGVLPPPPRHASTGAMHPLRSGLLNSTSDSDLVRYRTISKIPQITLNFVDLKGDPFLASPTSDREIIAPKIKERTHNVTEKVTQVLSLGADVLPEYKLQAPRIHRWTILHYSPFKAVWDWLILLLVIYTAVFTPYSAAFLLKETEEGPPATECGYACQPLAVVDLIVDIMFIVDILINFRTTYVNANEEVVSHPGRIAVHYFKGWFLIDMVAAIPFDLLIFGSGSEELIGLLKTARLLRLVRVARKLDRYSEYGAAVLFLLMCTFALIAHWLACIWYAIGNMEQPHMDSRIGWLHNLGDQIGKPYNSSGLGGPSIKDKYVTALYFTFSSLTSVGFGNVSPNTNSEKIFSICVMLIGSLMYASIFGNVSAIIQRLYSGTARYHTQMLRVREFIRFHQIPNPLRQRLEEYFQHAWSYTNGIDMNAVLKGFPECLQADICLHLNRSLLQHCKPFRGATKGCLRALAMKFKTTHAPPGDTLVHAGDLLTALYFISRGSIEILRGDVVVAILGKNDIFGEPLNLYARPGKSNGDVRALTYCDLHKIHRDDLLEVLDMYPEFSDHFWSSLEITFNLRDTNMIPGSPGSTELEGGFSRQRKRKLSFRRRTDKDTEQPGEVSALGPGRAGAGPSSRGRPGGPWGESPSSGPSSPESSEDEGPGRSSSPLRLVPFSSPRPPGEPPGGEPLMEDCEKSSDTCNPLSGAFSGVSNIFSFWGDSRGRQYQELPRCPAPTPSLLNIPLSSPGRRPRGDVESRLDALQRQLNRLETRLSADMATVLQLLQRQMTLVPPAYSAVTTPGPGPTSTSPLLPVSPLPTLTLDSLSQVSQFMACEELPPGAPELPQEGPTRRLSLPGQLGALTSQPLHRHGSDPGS
Sequence of Nav1.5 (Q14524 whole entry): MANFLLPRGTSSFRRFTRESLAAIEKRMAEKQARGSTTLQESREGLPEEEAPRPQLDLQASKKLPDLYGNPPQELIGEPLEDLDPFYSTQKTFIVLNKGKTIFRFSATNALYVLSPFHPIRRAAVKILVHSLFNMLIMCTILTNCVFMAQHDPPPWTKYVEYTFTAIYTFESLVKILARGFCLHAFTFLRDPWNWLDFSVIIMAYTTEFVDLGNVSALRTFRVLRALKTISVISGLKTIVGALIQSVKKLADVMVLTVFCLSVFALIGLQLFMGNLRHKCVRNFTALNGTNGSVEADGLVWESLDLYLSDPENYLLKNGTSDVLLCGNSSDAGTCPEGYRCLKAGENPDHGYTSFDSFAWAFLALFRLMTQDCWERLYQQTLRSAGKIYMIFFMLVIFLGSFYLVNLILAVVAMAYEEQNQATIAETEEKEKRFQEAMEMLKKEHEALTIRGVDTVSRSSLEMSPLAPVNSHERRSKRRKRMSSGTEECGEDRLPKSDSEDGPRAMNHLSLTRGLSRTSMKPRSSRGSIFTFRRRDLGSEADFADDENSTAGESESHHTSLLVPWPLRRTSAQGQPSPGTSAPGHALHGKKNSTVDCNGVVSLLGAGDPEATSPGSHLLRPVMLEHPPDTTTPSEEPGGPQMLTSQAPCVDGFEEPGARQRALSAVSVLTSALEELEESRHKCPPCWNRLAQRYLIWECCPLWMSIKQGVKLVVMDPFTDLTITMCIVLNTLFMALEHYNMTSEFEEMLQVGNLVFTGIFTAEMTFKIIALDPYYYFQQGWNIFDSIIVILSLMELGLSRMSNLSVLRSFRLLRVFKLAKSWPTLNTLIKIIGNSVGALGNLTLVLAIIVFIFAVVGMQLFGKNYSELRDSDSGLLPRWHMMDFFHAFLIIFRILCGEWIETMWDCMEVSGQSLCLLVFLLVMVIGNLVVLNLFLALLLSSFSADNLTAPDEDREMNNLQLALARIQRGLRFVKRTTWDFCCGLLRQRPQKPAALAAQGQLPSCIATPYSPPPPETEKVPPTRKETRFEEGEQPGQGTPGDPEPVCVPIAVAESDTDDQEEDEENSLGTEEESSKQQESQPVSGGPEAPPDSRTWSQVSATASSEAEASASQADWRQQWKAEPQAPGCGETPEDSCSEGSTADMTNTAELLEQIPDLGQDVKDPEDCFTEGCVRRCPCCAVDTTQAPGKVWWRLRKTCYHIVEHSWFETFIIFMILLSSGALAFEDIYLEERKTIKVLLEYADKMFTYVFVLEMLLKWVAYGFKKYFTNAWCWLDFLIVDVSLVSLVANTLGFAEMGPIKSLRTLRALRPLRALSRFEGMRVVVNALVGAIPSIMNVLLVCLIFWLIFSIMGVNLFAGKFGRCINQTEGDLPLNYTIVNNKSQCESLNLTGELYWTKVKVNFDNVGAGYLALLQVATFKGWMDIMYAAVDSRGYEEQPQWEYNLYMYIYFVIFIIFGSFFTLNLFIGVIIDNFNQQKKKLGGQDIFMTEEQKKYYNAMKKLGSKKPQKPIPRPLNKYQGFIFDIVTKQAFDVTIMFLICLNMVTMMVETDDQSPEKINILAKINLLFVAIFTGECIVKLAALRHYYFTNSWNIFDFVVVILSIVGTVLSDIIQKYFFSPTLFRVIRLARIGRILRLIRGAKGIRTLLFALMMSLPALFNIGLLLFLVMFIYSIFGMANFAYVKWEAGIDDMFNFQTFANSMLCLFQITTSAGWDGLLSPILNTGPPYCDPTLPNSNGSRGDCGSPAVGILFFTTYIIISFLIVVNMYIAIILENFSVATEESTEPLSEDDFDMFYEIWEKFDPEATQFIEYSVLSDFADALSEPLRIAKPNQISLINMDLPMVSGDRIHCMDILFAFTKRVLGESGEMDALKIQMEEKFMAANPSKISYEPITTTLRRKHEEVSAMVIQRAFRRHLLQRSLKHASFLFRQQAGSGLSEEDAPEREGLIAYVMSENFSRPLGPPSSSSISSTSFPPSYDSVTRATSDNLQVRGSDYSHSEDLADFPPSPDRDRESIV
Sequence of Kv2.1 (Q14721 whole entry): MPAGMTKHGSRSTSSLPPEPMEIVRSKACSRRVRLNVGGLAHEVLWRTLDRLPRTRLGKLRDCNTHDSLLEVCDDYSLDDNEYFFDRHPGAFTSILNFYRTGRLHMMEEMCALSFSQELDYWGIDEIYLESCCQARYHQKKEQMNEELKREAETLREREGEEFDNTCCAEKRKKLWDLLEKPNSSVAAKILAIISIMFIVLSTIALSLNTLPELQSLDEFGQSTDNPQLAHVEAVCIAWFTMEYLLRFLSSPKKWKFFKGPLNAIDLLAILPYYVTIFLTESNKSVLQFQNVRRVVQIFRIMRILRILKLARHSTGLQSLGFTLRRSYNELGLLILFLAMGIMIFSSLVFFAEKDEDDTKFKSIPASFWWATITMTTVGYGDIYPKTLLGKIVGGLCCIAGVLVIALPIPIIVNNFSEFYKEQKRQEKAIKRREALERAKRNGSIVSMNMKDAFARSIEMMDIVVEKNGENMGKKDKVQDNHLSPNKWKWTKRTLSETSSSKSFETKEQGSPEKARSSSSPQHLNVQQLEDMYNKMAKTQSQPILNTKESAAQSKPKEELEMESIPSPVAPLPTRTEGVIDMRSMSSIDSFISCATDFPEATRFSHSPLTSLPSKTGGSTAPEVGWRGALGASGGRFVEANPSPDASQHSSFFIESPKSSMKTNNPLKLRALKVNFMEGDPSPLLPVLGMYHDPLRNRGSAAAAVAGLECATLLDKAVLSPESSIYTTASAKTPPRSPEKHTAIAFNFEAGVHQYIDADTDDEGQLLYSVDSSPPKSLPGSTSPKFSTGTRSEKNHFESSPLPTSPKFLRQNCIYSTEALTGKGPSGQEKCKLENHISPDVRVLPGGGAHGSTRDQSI

CC[C@H](C)[C@@H]1NC(=O)[C@H](CCCCN)NC(=O)CNC(=O)[C@H](CCCNC(=N)N)NC(=O)[C@@H]2CSSC[C@H](NC(=O)CNC(=O)[C@H](Cc3ccccc3)NC(=O)CN)C(=O)N3CCC[C@H]3C(=O)N[C@@H](Cc3c[nH]c4ccccc34)C(=O)N[C@@H](CC(N)=O)C(=O)N[C@@H](C)C(=O)N[C@@H](Cc3ccc(O)cc3)C(=O)N[C@@H](CCC(=O)O)C(=O)N[C@H]3CSSC[C@H](NC(=O)[C@H]([C@@H](C)O)NC(=O)[C@H](CCC(N)=O)NC(=O)[C@H](CCCNC(=N)N)NC1=O)C(=O)N[C@@H](Cc1c[nH]cn1)C(=O)N[C@H](C(=O)N[C@@H](Cc1ccc(O)cc1)C(=O)O)CSSC[C@H](NC(=O)[C@H](Cc1c[nH]cn1)NC(=O)[C@H](CCCNC(=N)N)NC(=O)[C@H](CC(=O)O)NC3=O)C(=O)N[C@@H](C(C)C)C(=O)N[C@@H](CO)C(=O)N[C@@H](CCCCN)C(=O)NCC(=O)N[C@@H](Cc1ccc(O)cc1)C(=O)N[C@@H]([C@@H](C)O)C(=O)NCC(=O)NCC(=O)N[C@@H](CC(N)=O)C(=O)N2 [AMSIN] (H-GFGCPWNAYECDRHCVSKGYTGGNCRGKIRQTCHCY-OH; disulfide 4-25, 11-33, 15-35; N-terminus and C-terminus assumed)
Cell shape by scanning electron microscopy [1]: deformation of the cell shape | MCP-1 ([2]; FBS-containing medium, 25 μg/mL, replicate 1): 380 pg/mL | MCP-1 ([2]; FBS-containing medium, 25 μg/mL, replicate 2): 485 pg/mL | MCP-1 ([2]; FBS-containing medium, 25 μg/mL, replicate 3): 359 pg/mL | MCP-1 ([2]; FBS-containing medium, 50 μg/mL, replicate 1): 453 pg/mL | MCP-1 ([2]; FBS-containing medium, 50 μg/mL, replicate 2): 523 pg/mL | MCP-1 ([2]; FBS-containing medium, 50 μg/mL, replicate 3): 432 pg/mL | MCP-1 ([2]; FBS-containing medium, 100 μg/mL, replicate 1): 419 pg/mL | MCP-1 ([2]; FBS-containing medium, 100 μg/mL, replicate 2): 423 pg/mL | MCP-1 ([2]; FBS-containing medium, 100 μg/mL, replicate 3): 398 pg/mL | MCP-1 ([2]; Serum-Free medium, 25 μg/mL, replicate 1): 393 pg/mL | MCP-1 ([2]; Serum-Free medium, 25 μg/mL, replicate 2): 431 pg/mL | MCP-1 ([2]; Serum-Free medium, 25 μg/mL, replicate 3): 372 pg/mL | MCP-1 ([2]; Serum-Free medium, 50 μg/mL, replicate 1): 447 pg/mL | MCP-1 ([2]; Serum-Free medium, 50 μg/mL, replicate 2): 450 pg/mL | MCP-1 ([2]; Serum-Free medium, 50 μg/mL, replicate 3): 426 pg/mL | MCP-1 ([2]; Serum-Free medium, 100 μg/mL, replicate 1): 418 pg/mL | MCP-1 ([2]; Serum-Free medium, 100 μg/mL, replicate 2): 427 pg/mL | MCP-1 ([2]; Serum-Free medium, 100 μg/mL, replicate 3): 397 pg/mL | Lethal concentrations (C L) ([3]; SP (strains D39, R6, ST556, and TIGR4)): about 0.10 μM | C L ([3]; three oral Streptococcus bacteria (S. mutans, S. salivarius, and S. sanguinis)): 0.5 to 1.4 µM | Effect on bacterial membrane integrity (propidium iodide fluorescence) [4]: did not impair the integrity of bacterial membrane | Cellular variability of HL-60 (%) ([5]; 25 μg/mL, replicate 1): 97% | Cellular variability of HL-60 (%) ([5]; 25 μg/mL, replicate 2): 101% | Cellular variability of HL-60 (%) ([5]; 25 μg/mL, replicate 3): 108% | Cellular variability of HL-60 (%) ([5]; 50 μg/mL, replicate 1): 97% | Cellular variability of HL-60 (%) ([5]; 50 μg/mL, replicate 2): 100% | Cellular variability of HL-60 (%) ([5]; 50 μg/mL, replicate 3): 103% | Cellular variability of HL-60 (%) ([5]; 100 μg/mL, replicate 1): 97% | Cellular variability of HL-60 (%) ([5]; 100 μg/mL, replicate 2): 102% | Cellular variability of HL-60 (%) ([5]; 100 μg/mL, replicate 3): 106% | Effect on channel current [6]: no any effect | Effect on channel current [7]: no any effect | Effect on channel current [8]: no any effect | Effect on channel current [9]: no any effect | Effect on channel current [10]: no any effect | Effect on channel current [11]: no any effect
